Measured values as given in patent publication US9267949B2, “Alkylamino BODIPY dyes as selective fluorescent probes for proteins and mouse embryonic stem cells” (National University of Singapore, priority 2011, dated 2016).

Key:
[1] = Spectroscopic properties of the BDM library (absorbance and emission maxima); assay type: physicochemical
[2] = Quantum yield measurements; assay type: physicochemical; conditions: referred to Rhodamine B in EtOH, excitation 510 nm, emission integrated 540-800 nm
Procedure: Quantum yields were calculated by measuring the integrated emission area of the fluorescent spectra, and referring them to the area measured for Rhodamine B in EtOH after excitation at 510 nm (ΦRho-B=0.70). Quantum yields for the BDM products were then calculated using equation below, where F represents the area of fluorescent emission, n is reflective index of the solvent, and Abs is absorbance at excitation wavelength selected for standards and samples. Emission was integrated from 540 nm to 800 nm.

| λmax (ABS) [1] [nm] | λmax (EM) [1] [nm] | φ (quantum yield) [2] | SMILES |
| --- | --- | --- | --- |
| 555 | 563 | 0.32 | COc1ccc(F)c(/C=C/C2=[N+]3C(=C(CCN)c4cccn4[B-]3(F)F)C(C)=C2)c1 [BDM-245] |
| 557 | 568 | 0.24 | CC1=CC(/C=C/c2ccc(C)c(F)c2)=[N+]2C1=C(CCN)c1cccn1[B-]2(F)F [BDM-249] |
| 564 | 582 | 0.05 | COc1ccc(/C=C/C2=[N+]3C(=C(CCN)c4cccn4[B-]3(F)F)C(C)=C2)cc1Br [BDM-260] |
| 559 | 571 | 0.26 | CCCCc1ccc(/C=C/C2=[N+]3C(=C(CCN)c4cccn4[B-]3(F)F)C(C)=C2)cc1 [BDM-263] |
| 562 | 577 | 0.46 | COc1ccc(/C=C/C2=[N+]3C(=C(CCN)c4cccn4[B-]3(F)F)C(C)=C2)cc1Cl [BDM-274] |
| 559 | 574 | 0.59 | CC1=CC(/C=C/c2ccc(Oc3ccc(Cl)cc3)cc2)=[N+]2C1=C(CCN)c1cccn1[B-]2(F)F [BDM-277] |
| 556 | 567 | 0.15 | CC1=CC(/C=C/c2cccc(O)c2Cl)=[N+]2C1=C(CCN)c1cccn1[B-]2(F)F [BDM-283] |
| 594 | 622 | 0.03 | CC1=CC(/C=C/c2ccc(-c3cccc(Cl)c3)o2)=[N+]2C1=C(CCN)c1cccn1[B-]2(F)F [BDM-284] |
| 559 | 570 | 0.26 | CC1=CC(/C=C/c2ccc(C)c(Cl)c2)=[N+]2C1=C(CCN)c1cccn1[B-]2(F)F [BDM-289] |
| 558 | 574 | 0.36 | CC1=CC(/C=C/c2ccc(Oc3cccc(Cl)c3)cc2)=[N+]2C1=C(CCN)c1cccn1[B-]2(F)F [BDM-290] |
| 559 | 568 | 0.32 | COc1cccc(Oc2ccc(/C=C/C3=[N+]4C(=C(CCN)c5cccn5[B-]4(F)F)C(C)=C3)cc2)c1 [BDM-298] |
| 555 | 563 | 0.27 | CC1=CC(/C=C/c2ccc(Oc3ccc(Cl)c(Cl)c3)cc2)=[N+]2C1=C(CCN)c1cccn1[B-]2(F)F [BDM-299] |
| 562 | 579 | 0.44 | CC1=CC(/C=C/c2ccc(Oc3ccc(C)cc3)cc2)=[N+]2C1=C(CCN)c1cccn1[B-]2(F)F [BDM-300] |
| 555 | 566 | 0.31 | CC1=CC(/C=C/c2cccc(I)c2)=[N+]2C1=C(CCN)c1cccn1[B-]2(F)F [BDM-303] |
| 556 | 567 | 0.19 | CC1=CC(/C=C/c2ccc(Oc3cc(Cl)cc(Cl)c3)cc2)=[N+]2C1=C(CCN)c1cccn1[B-]2(F)F [BDM-308] |
| 556 | 565 | 0.21 | CC1=CC(/C=C/c2ccc(F)c(Oc3ccccc3)c2)=[N+]2C1=C(CCN)c1cccn1[B-]2(F)F [BDM-311] |
| 557 | 568 | 0.18 | COc1cc(/C=C/C2=[N+]3C(=C(CCN)c4cccn4[B-]3(F)F)C(C)=C2)ccc1F [BDM-312] |
| 556 | 570 | 0.10 | COc1ccc(/C=C/C2=[N+]3C(=C(CCN)c4cccn4[B-]3(F)F)C(C)=C2)cc1F [BDM-314] |
| 559 | 577 | 0.15 | CC1=CC(/C=C/c2ccc(Oc3ccc(F)cc3)cc2)=[N+]2C1=C(CCN)c1cccn1[B-]2(F)F [BDM-322] |
| 556 | 570 | 0.44 | CCOc1cccc(/C=C/C2=[N+]3C(=C(CCN)c4cccn4[B-]3(F)F)C(C)=C2)c1 [BDM-323] |
| 554 | 565 | 0.71 | CC1=CC(/C=C/c2ccc(OC(F)F)cc2)=[N+]2C1=C(CCN)c1cccn1[B-]2(F)F [BDM-326] |
| 565 | 591 | 0.78 | COc1ccc(/C=C/C2=[N+]3C(=C(CCN)c4cccn4[B-]3(F)F)C(C)=C2)cc1C [BDM-335] |
| 556 | 570 | 0.37 | CC1=CC(/C=C/c2ccccc2Oc2ccc(F)cc2)=[N+]2C1=C(CCN)c1cccn1[B-]2(F)F [BDM-341] |

The remaining lines, values behind:

| SMILES | λmax (ABS) [1] [nm] | λmax (EM) [1] [nm] | φ (quantum yield) [2] |
| --- | --- | --- | --- |
| COc1c(Br)cc(Br)cc1/C=C/C1=[N+]2C(=C(CCN)c3cccn3[B-]2(F)F)C(C)=C1 [BDM-241] | 560 | 576 | 0.32 |
| CC1=CC(/C=C/c2c(C)cccc2C)=[N+]2C1=C(CCN)c1cccn1[B-]2(F)F [BDM-243] | 543 | 565 | 0.87 |
| CC1=CC(/C=C/c2c(Cl)ccc(C)c2F)=[N+]2C1=C(CCN)c1cccn1[B-]2(F)F [BDM-246] | 554 | 566 | 0.17 |
| COc1cc(OC)c(/C=C/C2=[N+]3C(=C(CCN)c4cccn4[B-]3(F)F)C(C)=C2)cc1Br [BDM-247] | 571 | 599 | 0.54 |
| CCc1ccccc1/C=C/C1=[N+]2C(=C(CCN)c3cccn3[B-]2(F)F)C(C)=C1 [BDM-251] | 556 | 572 | 0.22 |
| CCc1ccc(/C=C/C2=[N+]3C(=C(CCN)c4cccn4[B-]3(F)F)C(C)=C2)cc1[N+](=O)[O-] [BDM-252] | 556 | 569 | 0.08 |
| COc1cc(/C=C/C2=[N+]3C(=C(CCN)c4cccn4[B-]3(F)F)C(C)=C2)cc(Br)c1OC [BDM-259] | 559 | 573 | 0.35 |
| CC1=CC(/C=C/c2ccc(C)cc2Br)=[N+]2C1=C(CCN)c1cccn1[B-]2(F)F [BDM-267] | 558 | 573 | 0.21 |
| COc1cc(Cl)cc(/C=C/C2=[N+]3C(=C(CCN)c4cccn4[B-]3(F)F)C(C)=C2)c1O [BDM-275] | 562 | – | 0.05 |
| COc1cccc(/C=C/C2=[N+]3C(=C(CCN)c4cccn4[B-]3(F)F)C(C)=C2)c1Cl [BDM-281] | 554 | 567 | 0.28 |
| COc1cc(Cl)cc(/C=C/C2=[N+]3C(=C(CCN)c4cccn4[B-]3(F)F)C(C)=C2)c1OC [BDM-282] | 558 | 565 | 0.19 |
| CC1=CC(/C=C/c2c(C)cccc2Cl)=[N+]2C1=C(CCN)c1cccn1[B-]2(F)F [BDM-285] | 544 | 561 | 0.51 |
| COc1cc2ccccc2c(/C=C/C2=[N+]3C(=C(CCN)c4cccn4[B-]3(F)F)C(C)=C2)c1OC [BDM-301] | 563 | 586 | 0.41 |
| COc1cc(F)c(/C=C/C2=[N+]3C(=C(CCN)c4cccn4[B-]3(F)F)C(C)=C2)cc1OC [BDM-305] | 567 | 587 | 0.25 |
| COc1cc(/C=C/C2=[N+]3C(=C(CCN)c4cccn4[B-]3(F)F)C(C)=C2)cc(O)c1OC [BDM-307] | 564 | 580 | 0.07 |
| COc1ccc(/C=C/C2=[N+]3C(=C(CCN)c4cccn4[B-]3(F)F)C(C)=C2)c(C)c1C [BDM-310] | 566 | 600 | 0.42 |
| CCOc1ccc(/C=C/C2=[N+]3C(=C(CCN)c4cccn4[B-]3(F)F)C(C)=C2)c(OCC)c1 [BDM-316] | 572 | 610 | 0.46 |
| CC1=CC(/C=C/c2cc(F)ccc2O)=[N+]2C1=C(CCN)c1cccn1[B-]2(F)F [BDM-318] | 563 | 576 | 0.11 |
| CCOc1c(/C=C/C2=[N+]3C(=C(CCN)c4cccn4[B-]3(F)F)C(C)=C2)cccc1OC [BDM-320] | 558 | 569 | 0.21 |
| COc1c(/C=C/C2=[N+]3C(=C(CCN)c4cccn4[B-]3(F)F)C(C)=C2)cc(C(C)(C)C)cc1C(C)(C)C [BDM-325] | 557 | 573 | 0.47 |
| CC1=CC(/C=C/c2cc(OCc3ccccc3)cc(OCc3ccccc3)c2)=[N+]2C1=C(CCN)c1cccn1[B-]2(F)F [BDM-331] | 554 | 566 | 0.65 |
| CC1=CC(/C=C/c2ccc3c(c2)OC(F)(F)O3)=[N+]2C1=C(CCN)c1cccn1[B-]2(F)F [BDM-332] | 552 | 562 | 0.61 |
| CSc1ccccc1/C=C/C1=[N+]2C(=C(CCN)c3cccn3[B-]2(F)F)C(C)=C1 [BDM-333] | 557 | 575 | 0.30 |
| CCOc1ccccc1/C=C/C1=[N+]2C(=C(CCN)c3cccn3[B-]2(F)F)C(C)=C1 [BDM-336] | 560 | 577 | 0.58 |
| CC1=CC(/C=C/c2c3ccccc3c(C)c3ccccc23)=[N+]2C1=C(CCN)c1cccn1[B-]2(F)F [BDM-340] | 534 | 541 | 0.11 |
